ChEMBL document CHEMBL2380240, “Discovery, synthesis, selectivity modulation and DMPK characterization of 5-azaspiro[2.4]heptanes as potent orexin receptor antagonists” (Bioorg Med Chem Lett, 2013)

Tests used:
CYP1A2 [1] = target: T1, CYP1A2 (Homo sapiens, UniProt P05177); experiment: Inhibition of human recombinant CYP1A2 at 1 uM by fluorimetric assay; assay type: ADME
T1 sequence (P05177 whole entry): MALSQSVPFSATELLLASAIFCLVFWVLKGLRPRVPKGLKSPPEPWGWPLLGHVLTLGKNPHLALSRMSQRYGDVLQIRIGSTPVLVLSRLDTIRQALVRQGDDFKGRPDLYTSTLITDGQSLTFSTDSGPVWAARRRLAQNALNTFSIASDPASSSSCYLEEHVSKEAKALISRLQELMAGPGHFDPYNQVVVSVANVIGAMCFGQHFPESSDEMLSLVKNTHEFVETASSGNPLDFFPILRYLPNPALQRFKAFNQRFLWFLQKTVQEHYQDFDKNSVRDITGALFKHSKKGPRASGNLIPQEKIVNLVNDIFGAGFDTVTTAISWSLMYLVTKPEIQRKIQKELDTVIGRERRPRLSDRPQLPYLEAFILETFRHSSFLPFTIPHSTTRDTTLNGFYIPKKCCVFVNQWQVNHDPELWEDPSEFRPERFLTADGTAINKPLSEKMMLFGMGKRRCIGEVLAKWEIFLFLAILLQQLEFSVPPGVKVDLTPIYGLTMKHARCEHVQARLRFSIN

[2] = Oral bioavailability in rat at 1 mg/kg; assay type: ADME, organism-based; conditions: in vivo
[3] = Plasma clearance in rat at 1 mg/kg, iv; assay type: ADME, organism-based; parameters: dose 1 mg/kg, route intravenous
CYP2C19 [4] = target: T2, CYP2C19 (Homo sapiens, UniProt P33261); experiment: Inhibition of human recombinant CYP2C19 at 1 uM by fluorimetric assay; assay type: ADME
T2 sequence (P33261 whole entry): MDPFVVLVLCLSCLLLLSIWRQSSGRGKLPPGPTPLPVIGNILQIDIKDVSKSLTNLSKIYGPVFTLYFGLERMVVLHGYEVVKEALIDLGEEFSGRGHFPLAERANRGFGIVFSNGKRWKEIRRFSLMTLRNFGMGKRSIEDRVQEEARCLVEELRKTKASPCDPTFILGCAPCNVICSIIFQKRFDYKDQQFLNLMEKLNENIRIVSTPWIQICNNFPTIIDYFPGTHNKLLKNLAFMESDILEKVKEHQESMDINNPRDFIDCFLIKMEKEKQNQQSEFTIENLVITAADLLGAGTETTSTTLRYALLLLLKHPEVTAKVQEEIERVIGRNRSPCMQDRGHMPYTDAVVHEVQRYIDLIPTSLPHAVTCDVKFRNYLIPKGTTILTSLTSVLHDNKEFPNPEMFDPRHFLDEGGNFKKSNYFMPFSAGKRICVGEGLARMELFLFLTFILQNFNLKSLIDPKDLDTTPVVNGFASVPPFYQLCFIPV

[5] = Ratio of drug uptake from rat brain to plasma at 1 mg/kg, iv after 1 hr; assay type: ADME, organism-based; parameters: dose 1 mg/kg, route intravenous; conditions: read-out: BPR
CYP3A4 [6] = target: T3, CYP3A4 (Homo sapiens, UniProt P08684); experiment: Inhibition of human recombinant CYP3A4 using BFC as substrate at 1 uM by fluorimetric assay; assay type: ADME; conditions: recombinant CYP3A4, probe BFC
T3 sequence (P08684 whole entry): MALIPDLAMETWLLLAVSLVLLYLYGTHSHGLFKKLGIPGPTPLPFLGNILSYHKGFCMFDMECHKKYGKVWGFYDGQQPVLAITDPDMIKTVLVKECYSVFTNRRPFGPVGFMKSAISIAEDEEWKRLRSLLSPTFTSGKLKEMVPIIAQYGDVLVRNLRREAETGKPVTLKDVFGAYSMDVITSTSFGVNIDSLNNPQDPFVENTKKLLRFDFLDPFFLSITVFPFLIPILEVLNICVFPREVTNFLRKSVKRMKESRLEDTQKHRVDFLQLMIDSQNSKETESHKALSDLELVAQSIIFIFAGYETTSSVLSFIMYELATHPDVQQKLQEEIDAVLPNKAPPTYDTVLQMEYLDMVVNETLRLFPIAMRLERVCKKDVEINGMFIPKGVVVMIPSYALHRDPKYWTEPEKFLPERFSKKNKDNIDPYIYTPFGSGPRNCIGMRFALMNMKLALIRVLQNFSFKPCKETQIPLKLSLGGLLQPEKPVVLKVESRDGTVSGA

[7] = Volume of distribution at steady state in rat; assay type: ADME, organism-based; conditions: in vivo, read-out: Vdss
CYP2D6 [8] = target: T4, CYP2D6 (Homo sapiens, UniProt P10635); experiment: Inhibition of human recombinant CYP2D6 at 1 uM by fluorimetric assay; assay type: ADME
T4 sequence (P10635 whole entry): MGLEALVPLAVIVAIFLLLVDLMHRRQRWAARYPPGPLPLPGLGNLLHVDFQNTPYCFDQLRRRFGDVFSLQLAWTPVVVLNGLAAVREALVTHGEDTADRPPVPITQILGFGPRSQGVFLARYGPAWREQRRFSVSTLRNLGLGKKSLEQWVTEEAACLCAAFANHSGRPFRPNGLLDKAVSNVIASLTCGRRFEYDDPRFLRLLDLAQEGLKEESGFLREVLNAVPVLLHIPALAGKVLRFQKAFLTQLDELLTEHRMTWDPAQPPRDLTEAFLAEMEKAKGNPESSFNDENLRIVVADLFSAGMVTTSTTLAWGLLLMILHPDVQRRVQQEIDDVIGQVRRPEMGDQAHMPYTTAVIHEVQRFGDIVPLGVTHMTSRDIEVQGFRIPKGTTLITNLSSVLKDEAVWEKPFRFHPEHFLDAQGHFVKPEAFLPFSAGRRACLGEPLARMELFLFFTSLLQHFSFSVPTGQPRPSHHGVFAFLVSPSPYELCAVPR

CYP3A4 [9] = target: T3, CYP3A4; experiment: Inhibition of human recombinant CYP3A4 using DBF as substrate at 1 uM by fluorimetric assay; assay type: ADME; conditions: recombinant CYP3A4, probe DBF
[10] = target: T5, Orexin/Hypocretin receptor type 1 (Homo sapiens) (UniProt O43613); experiment: Antagonist activity at human recombinant OX1 receptor expressed in CHO cells assessed as OXA-stimulated intracellular calcium mobilization by FLIPR assay; assay type: functional, cell-based
T5 sequence (whole entry): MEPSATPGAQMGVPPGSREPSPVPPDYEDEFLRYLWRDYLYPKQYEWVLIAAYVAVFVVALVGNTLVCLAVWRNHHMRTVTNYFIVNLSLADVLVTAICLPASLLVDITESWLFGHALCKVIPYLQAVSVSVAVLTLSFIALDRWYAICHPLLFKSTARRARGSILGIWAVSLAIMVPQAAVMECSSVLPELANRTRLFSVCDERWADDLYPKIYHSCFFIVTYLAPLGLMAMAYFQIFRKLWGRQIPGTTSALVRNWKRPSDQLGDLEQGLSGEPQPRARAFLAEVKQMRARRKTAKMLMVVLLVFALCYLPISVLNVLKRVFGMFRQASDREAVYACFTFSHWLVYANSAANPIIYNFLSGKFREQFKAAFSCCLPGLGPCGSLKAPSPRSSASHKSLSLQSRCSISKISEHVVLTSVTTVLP

CYP2C9 [11] = target: T6, CYP2C9 (Homo sapiens, UniProt P11712); experiment: Inhibition of human recombinant CYP2C9 at 1 uM by fluorimetric assay; assay type: ADME
T6 sequence (P11712 whole entry): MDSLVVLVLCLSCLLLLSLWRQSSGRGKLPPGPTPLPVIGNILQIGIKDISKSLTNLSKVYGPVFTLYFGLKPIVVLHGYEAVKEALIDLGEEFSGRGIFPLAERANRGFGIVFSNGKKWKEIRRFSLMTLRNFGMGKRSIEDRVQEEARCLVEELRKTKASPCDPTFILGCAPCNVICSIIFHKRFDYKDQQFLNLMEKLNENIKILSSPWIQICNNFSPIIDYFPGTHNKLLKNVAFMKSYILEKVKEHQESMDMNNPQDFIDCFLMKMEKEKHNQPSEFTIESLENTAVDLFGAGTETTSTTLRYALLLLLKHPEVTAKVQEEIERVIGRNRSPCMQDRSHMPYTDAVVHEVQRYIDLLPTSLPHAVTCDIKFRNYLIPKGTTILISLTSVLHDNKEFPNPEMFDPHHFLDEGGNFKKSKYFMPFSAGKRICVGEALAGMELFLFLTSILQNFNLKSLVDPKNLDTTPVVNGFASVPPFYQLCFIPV

[12] = target: T7, Orexin receptor type 2 (Homo sapiens) (UniProt O43614); experiment: Antagonist activity at human recombinant OX2 receptor expressed in HEK293 cells assessed as OXB-stimulated intracellular calcium mobilization by FLIPR assay; assay type: functional, cell-based
T7 sequence (whole entry): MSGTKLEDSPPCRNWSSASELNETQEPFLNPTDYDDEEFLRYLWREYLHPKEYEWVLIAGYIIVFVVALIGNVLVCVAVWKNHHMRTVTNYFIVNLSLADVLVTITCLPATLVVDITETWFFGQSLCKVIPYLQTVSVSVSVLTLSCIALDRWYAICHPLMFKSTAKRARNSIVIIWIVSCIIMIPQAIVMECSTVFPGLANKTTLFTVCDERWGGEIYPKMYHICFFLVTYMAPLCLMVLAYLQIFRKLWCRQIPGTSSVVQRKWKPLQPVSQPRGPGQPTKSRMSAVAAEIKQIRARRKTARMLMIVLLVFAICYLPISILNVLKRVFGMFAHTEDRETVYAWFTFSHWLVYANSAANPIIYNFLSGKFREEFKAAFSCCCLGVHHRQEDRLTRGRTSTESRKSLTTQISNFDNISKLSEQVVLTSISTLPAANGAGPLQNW

CYP3A4 [13] = target: T3, CYP3A4; experiment: Inhibition of human recombinant CYP3A4 using BFC as substrate at 3 uM by fluorimetric assay; assay type: ADME; conditions: recombinant CYP3A4, probe BFC
CYP2C9 [14] = target: T6, CYP2C9; experiment: Inhibition of human recombinant CYP2C9 at 3 uM by fluorimetric assay; assay type: ADME
CYP2C19 [15] = target: T2, CYP2C19; experiment: Inhibition of human recombinant CYP2C19 at 3 uM by fluorimetric assay; assay type: ADME
Cytochrome P450 3A4 [16] = target: T8, Cytochrome P450 3A4 (Homo sapiens, UniProt P08684); experiment: Time dependent inhibition of human recombinant CYP3A4 using BFC as substrate incubated for 30 mins prior to substrate addition; assay type: ADME; conditions: recombinant enzyme, 0.5 h
T8 sequence (P08684 whole entry): as the sequence (P08684 whole entry) above

CYP2D6 [17] = target: T4, CYP2D6; experiment: Inhibition of human recombinant CYP2D6 at 3 uM by fluorimetric assay; assay type: ADME
Cytochrome P450 3A4 [18] = target: T8, Cytochrome P450 3A4; experiment: Inhibition of human recombinant CYP3A4 using BFC as substrate by fluorimetric assay; assay type: ADME
CYP3A4 [19] = target: T3, CYP3A4; experiment: Inhibition of human recombinant CYP3A4 using DBF as substrate at 3 uM by fluorimetric assay; assay type: ADME; conditions: recombinant CYP3A4, probe DBF
CYP1A2 [20] = target: T1, CYP1A2; experiment: Inhibition of human recombinant CYP1A2 at 3 uM by fluorimetric assay; assay type: ADME
Homo sapiens = species: Homo sapiens; experiment: Selectivity ratio for human recombinant OX1 to human recombinant OX2

| SMILES | inhibition at 1 µM (CYP1A2 [1]) [%] | bioavailability [2] [%] | clearance [3] [mL/min/kg] | inhibition at 1 µM (CYP2C19 [4]) [%] | Kp at 1 h [5] | inhibition at 1 µM (CYP3A4 [6]) [%] | Vd [7] [L/kg] | inhibition at 1 µM (CYP2D6 [8]) [%] | inhibition at 1 µM (CYP3A4 [9]) [%] | pKb [10] | inhibition at 1 µM (CYP2C9 [11]) [%] | pKb [12] | inhibition at 3 µM (CYP3A4 [13]) [%] | inhibition at 3 µM (CYP2C9 [14]) [%] | inhibition at 3 µM (CYP2C19 [15]) [%] | inhibition (INH) (Cytochrome P450 3A4 [16]) | inhibition at 3 µM (CYP2D6 [17]) [%] | IC50 (Cytochrome P450 3A4 [18]) [µM] | inhibition at 3 µM (CYP3A4 [19]) [%] | inhibition at 3 µM (CYP1A2 [20]) [%] | further results |
| --- | --- | --- | --- | --- | --- | --- | --- | --- | --- | --- | --- | --- | --- | --- | --- | --- | --- | --- | --- | --- | --- |
| Cc1ccc(-c2ncccn2)c(C(=O)N2CC3(CC3)C[C@H]2CNc2ccc(Cl)cn2)c1 | < 53 | 40 | 11 | < 53 | 0.03 | < 53 | 6.21 | < 53 | < 53 | 8.2 | < 53 | < 5 |  |  |  |  |  |  |  |  |  |
| Cc1ccc(-c2ncccn2)c(C(=O)N2CC3(CC3)C[C@H]2CNc2ccc(C(F)(F)F)cn2)n1 |  | 33 | 47.5 |  | 0.5 |  | 2 |  |  | 8.4 |  | 7.5 | < 28 | < 28 | < 28 | Active | < 28 | > 100 | < 28 | < 28 |  |
| Cc1ccc(-c2ncccn2)c(C(=O)N2CC3(CC3)C[C@H]2CNc2cc(C(F)(F)F)ccn2)n1 | < 39 |  |  | < 39 |  | < 39 |  | < 39 | < 39 | 6 | < 39 | 8.1 |  |  |  |  |  |  |  |  | Selectivity ratio (Homo sapiens): > 100 |
| Cc1ccc(-c2ccccc2)c(C(=O)N2CC3(CC3)C[C@H]2CNc2ccc(C(F)(F)F)cn2)n1 |  | 11 | 61.3 |  | 0.4 |  | 4.4 |  |  | 8.6 |  | 8 | < 20 | < 20 | < 20 | Not Active | < 20 | 64 | < 20 | < 20 |  |
| Cc1cc(C)nc(NC[C@@H]2CC3(CC3)CN2C(=O)c2nc(C)sc2-c2ccccc2)n1 | < 16 |  | 41.4 | < 16 | 0.1 | < 16 | 0.7 | < 16 | < 16 | 7.5 | < 16 | 8.6 |  |  |  | Active |  | 7.9 |  |  |  |
| Cc1nc(C(=O)N2CC3(CC3)C[C@H]2CNc2ccc(C(F)(F)F)cn2)c(-c2ccccc2)s1 | < 20 | 20 | 55.2 | < 20 | 0.6 | < 20 | 3 | < 20 | < 20 | 8.4 | < 20 | 7.7 | < 20 | < 20 | < 20 | Active | < 20 | > 100 | < 20 | < 20 |  |
